Measured values taken from ChEMBL document CHEMBL1154233, “Minor furanocoumarins and coumarins in grapefruit peel oil as inhibitors of human cytochrome P450 3A4” (J Nat Prod, 2009).

Biological target: Cytochrome P450 3A4 (Homo sapiens, UniProt P08684)
Assay: Inhibition of CYP3A4 after 30 mins by fluorescence microplate reader assay; call rule not given here
Assay type: ADME

Chain of Cytochrome P450 3A4 (P08684 whole entry): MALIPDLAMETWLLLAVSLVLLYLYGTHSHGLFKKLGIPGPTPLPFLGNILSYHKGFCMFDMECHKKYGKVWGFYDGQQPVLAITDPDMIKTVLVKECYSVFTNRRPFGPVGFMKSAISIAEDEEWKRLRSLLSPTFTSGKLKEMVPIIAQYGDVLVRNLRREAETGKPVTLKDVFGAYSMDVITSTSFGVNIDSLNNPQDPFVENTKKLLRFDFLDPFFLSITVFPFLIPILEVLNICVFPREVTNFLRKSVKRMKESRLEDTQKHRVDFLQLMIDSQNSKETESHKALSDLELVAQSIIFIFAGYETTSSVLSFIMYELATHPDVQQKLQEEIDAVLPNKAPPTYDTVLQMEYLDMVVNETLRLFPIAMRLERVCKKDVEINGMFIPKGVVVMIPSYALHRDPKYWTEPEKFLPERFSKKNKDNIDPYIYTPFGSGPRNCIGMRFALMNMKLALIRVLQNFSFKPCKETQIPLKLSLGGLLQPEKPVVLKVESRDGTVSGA

| Structure (SMILES) | IC50 | IC50 (read-out: IC50) [nM] |
| --- | --- | --- |
| CCCCCCCC1O[C@H](CC/C(C)=C/COc2c3ccoc3cc3oc(=O)ccc23)C(C)(C)O1 (some centres not stated) |  | 130 |
| C/C(=C\COc1c2ccoc2cc2oc(=O)ccc12)CC[C@@H](O)C(C)(C)O |  | 1580 |
| CC(C)=CCC/C(C)=C/COc1c2ccoc2cc2oc(=O)ccc12 [BERGAMOTTIN] |  | 2420 |
| CC(C)=CCC/C(C)=C/COc1ccc2ccc(=O)oc2c1 [AURAPTENE] | Not Active |  |

More lines, now with the values ahead:

| IC50 | IC50 (read-out: IC50) [nM] | Structure (SMILES) |
| --- | --- | --- |
| Not Active |  | CCCCCCCCCC1O[C@H](CC/C(C)=C/COc2ccc3ccc(=O)oc3c2)C(C)(C)O1 (some centres not stated) |
| Not Active |  | C/C(=C\COc1ccc2ccc(=O)oc2c1)CC[C@@H](O)C(C)(C)O [R-(+)-MARMIN] |
|  | 270 | CCCCCCCCCC1O[C@H](CC/C(C)=C/COc2c3ccoc3cc3oc(=O)ccc23)C(C)(C)O1 (some centres not stated) |
